Columns and labels:
Test in all cases: relative viability (nuclei count vs DMSO), 5 days (fraction); higher = more cells survive
[1] = compound: CC1(C)CNc2cc(NC(=O)c3cccnc3NCc3ccncc3)ccc21 [Motesanib]
Procedure, shortened: (§1)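 Acceptance criteria were a control CV below 25% and at least one doubling per plate. Lung cancer cell lines in 1536-well plates got five library-drug doses (not always all listed) √10 apart by pinning and were left 5 days with no medium change. Viability divides treated-well nuclei by vehicle-well nuclei and is the median across plates. Nuclei were counted by MetaXpress from 4× Hoechst images.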

[2] = compound: C[C@@]1(C(=O)Nc2ccc(F)nc2)CCCN1c1nc(Nc2cc(C3CC3)n[nH]2)c2cccn2n1
Procedure, shortened: as §1

[3] = compound: CC1(C)CNc2cc(NC(=O)c3cccnc3NCc3ccncc3)ccc21 [Motesanib] + CC1(C)CCC(c2ccc(Cl)cc2)=C(CN2CCN(c3ccc(C(=O)NS(=O)(=O)c4ccc(N[C@H](CCN5CCOCC5)CSc5ccccc5)c(S(=O)(=O)C(F)(F)F)c4)cc3)CC2)C1 [Navitoclax] (partner 0.5 µM)
Procedure, shortened: (§2)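 For relative viability, nuclei counts in treated wells were divided by those in vehicle wells. Lung cancer cell lines had been pin-tool dosed in 1536-well plates the day after seeding and cultured for 5 days, then fixed and stained in one step (final 0.05% Triton X-100, 1% formaldehyde, 1 ug/ml Hoechst) and imaged at 4×. Doses were one drug alone or a fixed anchor-drug dose plus five library-drug doses (not always all listed) in √10 steps, and values are duplicate-plate medians.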

[4] = compound: CC1(C)CNc2cc(NC(=O)c3cccnc3NCc3ccncc3)ccc21 [Motesanib] + COc1cc2c(Oc3ccc(NC(=O)C4(C(=O)Nc5ccc(F)cc5)CC4)cc3F)ccnc2cc1OCCCN1CCOCC1 [Foretinib] (partner 0.25 µM)
Procedure, shortened: as §2

Cell Line	relative viability ([1]; 0.01 µM)	relative viability ([1]; 0.03162 µM)	relative viability ([1]; 0.1 µM)	relative viability ([1]; 0.3162 µM)	relative viability ([1]; 1 µM)	relative viability ([2]; 0.04 µM)	relative viability ([2]; 0.1265 µM)	relative viability ([2]; 0.4 µM)	relative viability ([2]; 1.265 µM)	relative viability ([3]; first compound 0.01 µM)	relative viability ([3]; first compound 0.03162 µM)	relative viability ([3]; first compound 0.1 µM)	relative viability ([3]; first compound 0.3162 µM)	relative viability ([3]; first compound 1 µM)	relative viability ([4]; first compound 0.01 µM)	relative viability ([4]; first compound 0.03162 µM)	relative viability ([4]; first compound 0.1 µM)	relative viability ([4]; first compound 0.3162 µM)	relative viability ([4]; first compound 1 µM)
NCI-H1395	0.814	0.84	0.95	0.866	0.924	0.916	0.825	0.922	0.755	1.22	1.06	1.27	1.17	1.27	0.973	0.809	1.05	1.02	0.942
LU99A	0.911	1.03	0.905	1.02	0.98	0.72	0.645	0.6	0.381	0.82	0.849	0.75	0.798	0.835	0.795	0.813	0.734	0.898	0.89
NCI-H1355	1.03	1.02	0.978	1.04	1.01	0.96	0.794	0.797	0.818	0.994	0.946	0.882	1.06	0.957	1.02	0.96	1.02	1.01	1.03
HCC-78	0.891	0.957	0.957	0.92	1.03	0.968	0.686	0.496	0.44	0.817	0.862	0.825	0.818	0.947	0.665	0.637	0.507	0.514	0.678
HCC-15	0.955	0.972	0.896	1.16	1.01	0.85	0.667	0.727	0.764	0.69	0.718	0.713	0.773	0.748	0.984	0.838	1.01	1.17	1.11
EKVX	0.919	1	1.01	0.928	1.08	0.963	0.762	0.733	0.815	0.88	1.11	1.06	0.989	0.961	0.744	0.902	0.743	0.82	0.921
NCI-H2087	1.14	0.887	1.06	1.25	1.37	0.954	0.815	0.868	0.819	0.92	1.14	0.997	0.902	1.03	1.02	0.937	1.2	1.23	1.11
LK-2	1.05	0.945	0.914	1.05	1.02	0.623	1.06	0.508	0.636	0.915	0.877	0.811	0.911	0.894	1.21	1.08	–	1.27	1.31
NCI-H1437	0.964	0.958	0.998	1	0.957	1.04	0.918	0.679	0.714	1.09	1.05	1.07	1.11	1.13	1.28	1.24	1.25	1.3	1.33
COR-L23	1.01	0.962	1.03	1.04	1.07	1.13	0.985	0.886	0.774	1.01	0.936	1.08	1.06	0.972	0.993	1.06	0.992	0.964	0.955
NCI-H838	1.04	0.962	0.985	1.02	0.932	0.942	0.76	0.693	0.736	1.25	1.21	1.09	1.25	1.14	1.17	1.06	1.07	1.14	1.09
A549	0.951	0.958	1	1.01	1.02	0.869	0.693	0.509	0.589	1.19	1.23	1.17	1.34	1.32	0.88	0.942	1.02	0.944	1.03
A-427	0.944	1.01	0.894	1.03	1.06	1.09	0.944	0.889	0.797	1.01	0.989	1.06	1.02	1.02	1.04	1.05	1.06	1.16	1.23
LCLC-97TM1	0.895	0.961	0.95	1.03	0.999	0.824	0.356	0.225	0.143	0.406	0.519	0.32	0.375	0.657	0.948	0.968	0.976	0.919	0.979
NCI-H1703	0.911	0.901	0.52	0.286	0.236	0.97	0.807	0.716	0.778	1.25	1.05	0.494	0.299	0.27	0.349	0.318	0.325	0.395	0.355
PC-3 [JPC-3]	1.05	1.03	1.05	1.03	1.05	1.04	0.937	1.02	1.02	0.83	0.883	0.802	0.779	0.827	1.01	1.06	1.06	1.03	1.01

— the supplement of paper PMC10307832
